{
  "source": "paper PMC7156724",
  "about": "“Potent BRD4 inhibitor suppresses cancer cell-macrophage interaction” (Nature Communications, 2020)",
  "key": {"[1]": {"test_system": "human melanoma patient-derived xenograft (PDX)", "experiment": "Human melanoma patient-derived xenograft (PDX) tumor growth", "assay_type": "in vivo, NSG mice", "settings": "human melanoma PDX, once daily (5 days on, 2 days off) 21 days, NHWD-870-HCl", "source_text": "PO, oral administration; QD, once daily; BID, twice daily. b–d Tumor growth curves for A2780 ovarian tumor (n = 5) (b), TMD8 large B cell lymphoma (n = 6) (c), and B16F10 melanoma (n = 5) (d) bearing mice treated with the indicated compounds once daily for 11-21 days. e, f Tumor growth curves for A375 melanoma (n = 6) (e), and patient-derived xenograft (PDX) of melanoma (n = 5) (f) bearing mice treated with the indicated compounds once daily (5 days on, 2 days off) for 21 days. For d–f, NHWD-870 used is NHWD-870-HCl synthesized using Suzuki coupling route. Data are presented as mean ± SEM in (a, b, d, f) and mean + SEM in (c, e). p values were calculated using two-tailed, unpaired t tests. *p < 0.05; **p < 0.01; ***p < 0.001. Source data are provided as a Source Data file.\n4–6 weeks old female BALB/c nude mice were used for most experiments, with the exception of 6–8 weeks old female C57BL/6 mice were used for B16F10 experiments, and 6–8 weeks old male BALB/c nude mice and SD rats were used for pharmacokinetic experiments. All animals were purchased from Shanghai SIPPR-Bk Lab Animal Co., Ltd. All animals were housed under a regimen of 12 h light/12 h dark cycles and specific pathogen-free conditions. 5×10^6 NCI-H526, ES-2, MDA-MB231, A2780, A375, B16F10, and TMD-8 cells (0.1 ml) were injected subcutaneously into female nude mice. The melanoma patient-derived xenograft model was derived from a human melanoma sample (BRAF, NARS and NF1 wild type, and p53 mutant) removed from a patient in Xiangya Hospital. Surgically removed tumor fragments were implanted subcutaneously into female NSG mice. When the tumors grew to ~1000 mm^3, they were harvested and cryopreserved or immediately re-implanted for expansion or experiments. Mouse body weight and tumor sizes were measured every 3 days. Once the tumors grew to 150–200 mm^3, mice were treated with the compounds as described in the Figures. 1 × 10^6 A2780 cells (1 ml) were injected into the abdominal cavity of nude mice. Ascitic volume and tumor weight were measured by an electronic balance. All the procedures were evaluated and approved by the Institutional Animal Care and Use Committee of Central South University and Yale University."}, "CSF1 mRNA": {"test_system": "CSF1 mRNA", "experiment": "RT-qPCR of CSF1 mRNA in mouse tumor cells (ID8, B16)", "assay_type": "cell-based", "settings": "ID8, 50 nM, 48 h"}, "TAMs": {"test_system": "TAMs", "experiment": "Transwell co-culture of pretreated A2780 cells and TAMs with CSF1 or anti-CSF1R antibodies", "assay_type": "cell-based, mouse", "settings": "co-culture with pretreated A2780 cells, MCSF-1 10ng/ml where added", "procedure": "Fig. 6 CSF1/CSF1R signaling is critical for the tumor inhibitory effects of NHWD-870 and CSF1 induced ovarian cancer growth depends on macrophages. a Number of TAMs after treatment with the indicated concentration of CSF1 for 48 h. Data are presented as mean ± SEM from three independent experiments. b–d Schematics of the experiments (b). A2780 cells (pre-treated with DMSO or 100 nM NHWD-870 for 48 h) were seeded into the top chamber (transwell size: 0.4 μm), and TAMs (Mac, 40,000 cells per 24-well) in medium with PBS or 10 ng/ml CSF1 (c), or 50 ng/ml IgG or anti-CSF1R antibodies (d), were seeded into the bottom chamber. Shown are quantification of TAMs (c, d). Data are presented as mean ± SEM from three independent experiments. e Representative western blot analysis of A2780 cells stably transfected with CSF1 or empty vector (EV). Selected from three independent experiments. f Schematics of the animal experiments using an orthotopic mouse OC model, established by intraperitoneally injecting 1 × 10^6 (g–j) or 2 × 10^6 (k–m) human A2780 cells overexpressing CSF1 or control into female recipient nude mice. Mice were then treated with/without liposomal clodronate (LC) for 45 days (g–j) or treated with/without NHWD-870 (PO, QD, 3 mg/kg) for 37 days (k–m). g Increased mouse body weight was measured at the indicated time points (day 0-45 after LC treatment). h–j Net tumor weight (h), ascitic fluid volumes (i) tumor implantations in peritoneum, omentum and pevic cavity (j) were measured at day 45 from LC treatment. k–m Net tumor weight (k), ascitic fluid volumes (l) tumor implantations in peritoneum, omentum and pevic cavity (m) were measured at day 37 after NHWD-870 treatment. For g–m, data are presented as mean ± SEM from five different mice. p values were calculated using two-tailed, unpaired t tests in this figure. n.s, not significant; *p < 0.05; **p < 0.01; and ***p < 0.001. Source data are provided as a Source Data file.\nCD45^+CD11b^+F4/80^+ TAMs were isolated from peritoneal metastasis of A2780 tumor-bearing mice and cultured in RPMI-1640 supplemented with 10% FBS, 1% penicillin/streptomycin, and 0–50 ng/ml CSF1 (R&D Systems) as indicated according to standard protocols. In the cancer cell-macrophage co-culture experiments, CSF1 was not added. In the transwell (Corning, pore size, 0.4 μm) co-culture experiments, tumor cells were placed into the upper chamber, and TAMs were seeded into the lower chamber."}},
  "note": "“And” between values parts separate entries of the source, which are not always exact repeats. Equal values may be shown once.",
  "data": [
    {"smiles": "Cc1nnn(C)c1-c1cnc2c3c4cnn(C)c4ccc3n([C@H](c3ccccc3)C3CCOCC3)c2c1", "note": "[NHWD-870]", "values": [
      {"measurement": "effect on tumor growth", "setting": "[1]", "value": "very strong tumor inhibitive effects"},
      {"measurement": "relative CSF1 mRNA level", "setting": "CSF1 mRNA", "value": "0.0037 and 0.00425 and 0.0051"},
      {"measurement": "Number of TAMs (Fig.6c)", "setting": "TAMs; time 0", "value": 5},
      {"measurement": "Number of TAMs (Fig.6c)", "setting": "TAMs; time 24", "value": "5.5 and 5.2 and 6.2"},
      {"measurement": "Number of TAMs (Fig.6c)", "setting": "TAMs; time 48", "value": "6.8 and 6.3 and 7.4"},
      {"measurement": "Number of TAMs (Fig.6c)", "setting": "TAMs; time 72", "value": "8.9 and 9.5 and 8.5"}
    ]}
  ]
}
